Experimental data reported in paper PMC10374968, “Drosophila class-I myosins that can impact left-right asymmetry have distinct ATPase kinetics” (The Journal of Biological Chemistry, 2023).
Where two headings read alike, the source gives them in different places.

Assays:
[1] = biological target: T1, myo1D (myosin-1D; myo31DF) (Drosophila melanogaster, UniProt Q23978); details: read-out: Myo1D; rapid-equilibrium binding step to actomyosin (printed in μM, used as association constant in Equation 2); KMg25 pH 7.0, 1 mM MgCl2; 20 C
T1 sequence (Q23978 whole entry): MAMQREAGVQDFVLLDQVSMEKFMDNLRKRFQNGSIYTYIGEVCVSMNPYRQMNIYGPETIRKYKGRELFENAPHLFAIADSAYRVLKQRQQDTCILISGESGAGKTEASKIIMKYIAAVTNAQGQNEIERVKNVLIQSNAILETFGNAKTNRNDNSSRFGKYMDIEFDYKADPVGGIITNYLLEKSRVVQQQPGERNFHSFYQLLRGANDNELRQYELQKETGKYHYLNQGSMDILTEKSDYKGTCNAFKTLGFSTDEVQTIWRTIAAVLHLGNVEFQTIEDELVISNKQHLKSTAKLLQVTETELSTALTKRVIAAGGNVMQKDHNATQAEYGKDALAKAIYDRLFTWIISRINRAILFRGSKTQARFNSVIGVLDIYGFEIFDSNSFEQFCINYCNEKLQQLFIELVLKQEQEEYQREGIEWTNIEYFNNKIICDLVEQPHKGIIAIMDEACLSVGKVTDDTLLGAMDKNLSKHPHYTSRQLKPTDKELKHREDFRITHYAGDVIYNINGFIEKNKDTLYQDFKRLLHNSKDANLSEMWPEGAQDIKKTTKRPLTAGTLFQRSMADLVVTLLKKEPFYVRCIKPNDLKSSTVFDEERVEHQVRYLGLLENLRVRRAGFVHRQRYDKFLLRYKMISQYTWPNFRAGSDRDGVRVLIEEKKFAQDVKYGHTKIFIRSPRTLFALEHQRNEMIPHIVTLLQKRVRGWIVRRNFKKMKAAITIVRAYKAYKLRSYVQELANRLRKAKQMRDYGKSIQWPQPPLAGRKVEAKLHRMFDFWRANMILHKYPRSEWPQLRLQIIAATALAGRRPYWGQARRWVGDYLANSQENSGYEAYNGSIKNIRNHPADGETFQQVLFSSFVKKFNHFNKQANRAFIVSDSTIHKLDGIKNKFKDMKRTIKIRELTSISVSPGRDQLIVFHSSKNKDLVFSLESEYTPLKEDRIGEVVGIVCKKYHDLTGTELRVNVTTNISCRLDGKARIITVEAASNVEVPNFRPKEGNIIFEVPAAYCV

[2] = biological target: myo1C (myosin-1C; myo61F) (Drosophila melanogaster, UniProt Q23979); details: read-out: Myo1C; rapid-equilibrium binding step to actomyosin (printed in μM, used as association constant in Equation 2); KMg25 pH 7.0, 1 mM MgCl2; 20 C
Chain of myo1C (myosin-1C; myo61F) (Q23979 whole entry): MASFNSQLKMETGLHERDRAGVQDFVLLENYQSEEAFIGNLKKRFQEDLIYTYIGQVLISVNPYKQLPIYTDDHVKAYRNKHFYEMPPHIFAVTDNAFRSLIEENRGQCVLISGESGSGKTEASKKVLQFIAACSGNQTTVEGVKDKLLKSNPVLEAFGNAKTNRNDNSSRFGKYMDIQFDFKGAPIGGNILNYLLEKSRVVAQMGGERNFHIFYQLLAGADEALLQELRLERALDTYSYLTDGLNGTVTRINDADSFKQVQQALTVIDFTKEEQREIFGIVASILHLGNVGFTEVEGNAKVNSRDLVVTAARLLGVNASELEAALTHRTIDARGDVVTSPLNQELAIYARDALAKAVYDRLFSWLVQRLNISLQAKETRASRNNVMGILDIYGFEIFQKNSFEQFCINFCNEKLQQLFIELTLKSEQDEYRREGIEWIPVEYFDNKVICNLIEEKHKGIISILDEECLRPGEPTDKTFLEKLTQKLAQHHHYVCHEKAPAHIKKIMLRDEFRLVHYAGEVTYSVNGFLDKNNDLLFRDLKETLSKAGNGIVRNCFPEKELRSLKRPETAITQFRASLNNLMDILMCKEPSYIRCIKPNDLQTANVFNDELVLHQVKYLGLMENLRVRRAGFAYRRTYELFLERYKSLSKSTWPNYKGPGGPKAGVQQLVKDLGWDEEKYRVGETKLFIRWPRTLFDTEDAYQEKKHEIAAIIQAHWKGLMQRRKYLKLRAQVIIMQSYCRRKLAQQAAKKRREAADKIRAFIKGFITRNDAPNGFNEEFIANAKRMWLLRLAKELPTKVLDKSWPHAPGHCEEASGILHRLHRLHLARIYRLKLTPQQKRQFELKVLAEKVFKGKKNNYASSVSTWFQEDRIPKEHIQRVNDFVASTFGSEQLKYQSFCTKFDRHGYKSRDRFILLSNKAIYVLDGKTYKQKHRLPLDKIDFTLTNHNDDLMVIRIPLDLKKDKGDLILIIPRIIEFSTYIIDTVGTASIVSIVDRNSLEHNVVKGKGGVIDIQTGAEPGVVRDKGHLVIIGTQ

[3] = biological target: T1, myo1D (myosin-1D; myo31DF); assay: stopped-flow pyrene-actin fluorescence, slow-phase amplitude vs MgADP, quadratic fit; type: binding; design: full-length, C-terminal FLAG-Avi tags kept (biotinylated for gliding); baculovirus, Sf9 or Hi5 insect cells; heavy chain 117 kDa, calmodulin light chains; with Calmodulin (Gallus gallus, recombinant); Actin, alpha skeletal muscle (Oryctolagus cuniculus); details: actomyosin complex; chased with 1 mM MgATP; KMg25: 10 mM Mops pH 7.0, 25 mM KCl, 1 mM MgCl2, 1 mM EGTA, 1 mM DTT; 20 C

| Kd [1] | Kd [2] | Kd [3] | Structure (SMILES) |
| --- | --- | --- | --- |
| 118 ± 15 µM | 73 ± 11 µM | – | Nc1ncnc2c1ncn2[C@@H]1O[C@H](COP(=O)(O)OP(=O)(O)OP(=O)(O)O)[C@@H](O)[C@H]1O [MgATP] |
| – | – | 0.044 ± 0.002 µM | Nc1ncnc2c1ncn2[C@@H]1O[C@H](COP(=O)(O)OP(=O)(O)O)[C@@H](O)[C@H]1O [MgADP] |
